Holding throughout (type): functional, cell-based
Test [1] has as its system NCI/ADR-RES. Nature of the test: Cytotoxicity against human MCF7/ADR cells measured after 48 hrs by MTT assay.
The subject of test [2] is SMMC-7721. Nature of the test: Cytotoxicity against Taxol-resistant human SMMC7721 cells measured after 48 hrs by MTT assay. The settings on record: SMMC-7721, 48 h. In general terms: Tetrazolium assays rely on reduction of a dye to a coloured formazan, in cell work by metabolically active cells.
Test [3] relates to A549. The experiment in a line: Cytotoxicity against Taxol-resistant human A549 cells measured after 48 hrs by MTT assay. Particulars: A549, 48 h.

A value given as a limit tells only on which side of the number the result lay.

Usually IC50 stands for the concentration needed to halve the response being measured. On to `COc1ccc2oc3ccc(O)cc3c(=O)c2c1OC`, for which the IC50 in test [1] was 53.5 µM; in test [2] it was 81.8 µM; in test [3], 178 µM.
Regarding `COc1c(O)ccc2oc3ccc(O)cc3c(=O)c12`, the IC50 was found to be 109 µM in test [1], 56.3 µM in test [2] and 37.1 µM in test [3].
Consider `COc1cc2c(=O)c3c(O)c(OC)c(O)cc3oc2cc1O`, for which the half-inhibitory concentration (IC50) in test [1] was over 200 µM; in test [2] it was 102 µM; in test [3], over 200 µM.
Consider `COc1cc(OC)c2c(=O)c3c(O)cccc3oc2c1OC`, for which the IC50 in test [1] stood at 59.1 µM; in test [2], 50.9 µM; in test [3] it was 34.6 µM.
In the case of `O=c1c2cc(O)ccc2oc2cccc(O)c12`, the IC50 in test [1] is over 200 µM; in test [2] it was 60.4 µM; in test [3], over 200 µM.
Turning to `COc1c(O)cc2oc3cccc(O)c3c(=O)c2c1O`, the IC50 was over 200 µM in test [1], 43.8 µM in test [2] and over 200 µM in test [3].
Take `COc1c(O)cc2oc3ccc(O)cc3c(=O)c2c1O`: the figures for the IC50 in test [1], in test [2] and in test [3] were over 200 µM, 48.9 µM and 167 µM, respectively.
The corresponding values for `COc1cc(O)c2c(=O)c3cc(O)ccc3oc2c1OC` are 57.3 µM, 63 µM and 62.3 µM.
Turning to `COc1ccc(O)c2c(=O)c3cc(O)ccc3oc12`, the values for the IC50 in test [1], in test [2] and in test [3] were 185 µM, 15.1 µM and 38.9 µM, respectively.
Regarding `COc1cc(O)c2c(=O)c3cc(O)ccc3oc2c1`, the IC50 in test [1] came out at 31.8 µM; in test [2] it was 87.4 µM; in test [3], 104 µM.
As to `O=c1c2cc(O)ccc2oc2cc(O)cc(O)c12`, the IC50 in test [1] worked out at 193 µM; in test [2], 38.5 µM; in test [3], 146 µM.
On to `COc1ccc2oc3ccc(O)c(OC)c3c(=O)c2c1`, for which the IC50 in test [1] was found to be 102 µM; in test [2] it was 83.7 µM; in test [3], 35.2 µM.
Regarding `COc1c(O)cc(OC)c2c(=O)c3c(O)cccc3oc12`, the results for the IC50 in test [1], in test [2] and in test [3] were 30.4 µM, 14.7 µM and 25.6 µM, respectively.

These data come from ChEMBL document CHEMBL4000229, “Structure-activity relationships of diverse xanthones against multidrug resistant human tumor cells” (Bioorg Med Chem Lett, 2017).
